# ChEMBL document CHEMBL1201862, “PubChem BioAssay data set” (2004)
# Calls of active or inactive are those of the source.
# How the values were obtained:
# [1] = test system: HT-1080; assay: HT1080 cell viability loss – fluorescence readout (AID 620); type: functional, cell-based; settings: Homo sapiens
# [2] = target: Cytochrome P450 2C19 (Homo sapiens, UniProt P33261); assay: Cytochrome panel assay with activity outcomes. Panel member name: p450-cyp2c19 Compounds with AC50 equal or less than 10 uM are considered active; type: functional; settings: read-out: AC50
# Chain of Cytochrome P450 2C19 (P33261 whole entry): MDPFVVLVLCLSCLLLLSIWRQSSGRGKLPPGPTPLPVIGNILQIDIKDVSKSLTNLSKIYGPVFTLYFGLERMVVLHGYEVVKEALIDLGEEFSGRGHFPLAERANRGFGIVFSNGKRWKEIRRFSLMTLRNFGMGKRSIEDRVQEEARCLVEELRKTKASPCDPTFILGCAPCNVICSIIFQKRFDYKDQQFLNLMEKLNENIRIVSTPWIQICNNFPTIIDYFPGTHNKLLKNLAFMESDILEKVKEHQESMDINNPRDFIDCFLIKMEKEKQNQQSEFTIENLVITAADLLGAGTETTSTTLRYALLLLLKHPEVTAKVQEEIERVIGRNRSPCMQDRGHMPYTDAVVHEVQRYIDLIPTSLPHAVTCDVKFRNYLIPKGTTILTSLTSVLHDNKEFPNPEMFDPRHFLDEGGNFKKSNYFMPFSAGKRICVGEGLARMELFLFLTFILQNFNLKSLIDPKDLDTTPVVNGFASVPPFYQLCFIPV
# [3] = target: T1, Luciferin 4-monooxygenase (Photinus pyralis, UniProt P08659); assay: Counter Screen for Luciferase-based Assay Positives. [Related pubchem assays: 620, 618, 411 ]
# T1 sequence (P08659 whole entry): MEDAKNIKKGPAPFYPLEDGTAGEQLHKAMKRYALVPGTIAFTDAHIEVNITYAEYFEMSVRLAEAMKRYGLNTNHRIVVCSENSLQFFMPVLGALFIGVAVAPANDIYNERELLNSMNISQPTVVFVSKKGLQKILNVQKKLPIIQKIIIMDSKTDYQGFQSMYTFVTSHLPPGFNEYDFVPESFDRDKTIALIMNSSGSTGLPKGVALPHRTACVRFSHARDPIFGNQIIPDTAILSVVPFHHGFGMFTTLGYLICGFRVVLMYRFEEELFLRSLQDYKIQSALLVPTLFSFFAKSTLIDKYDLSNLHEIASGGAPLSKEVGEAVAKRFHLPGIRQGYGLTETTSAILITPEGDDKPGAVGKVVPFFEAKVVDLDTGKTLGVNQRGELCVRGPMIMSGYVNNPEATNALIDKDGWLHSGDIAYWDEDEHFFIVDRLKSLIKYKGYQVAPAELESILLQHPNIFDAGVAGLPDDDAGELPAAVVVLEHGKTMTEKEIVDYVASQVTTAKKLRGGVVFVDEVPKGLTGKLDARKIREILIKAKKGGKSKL
# [4] = target: T2, Heat shock factor protein 1 (Mus musculus, UniProt P38532); assay: decrease of HSF1-responsive luciferase luminescence – cell-based, NIH3T3, dose retest, confirmation (AID 2382); type: functional;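 also: NIH3T3 fibroblasts with HSF1-driven luciferase reporter stressed by proteasome inhibitor MG132; luminescence from HSF1-driven luciferase expression after 8 hours of MG132 stress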
# T2 sequence (P38532 whole entry): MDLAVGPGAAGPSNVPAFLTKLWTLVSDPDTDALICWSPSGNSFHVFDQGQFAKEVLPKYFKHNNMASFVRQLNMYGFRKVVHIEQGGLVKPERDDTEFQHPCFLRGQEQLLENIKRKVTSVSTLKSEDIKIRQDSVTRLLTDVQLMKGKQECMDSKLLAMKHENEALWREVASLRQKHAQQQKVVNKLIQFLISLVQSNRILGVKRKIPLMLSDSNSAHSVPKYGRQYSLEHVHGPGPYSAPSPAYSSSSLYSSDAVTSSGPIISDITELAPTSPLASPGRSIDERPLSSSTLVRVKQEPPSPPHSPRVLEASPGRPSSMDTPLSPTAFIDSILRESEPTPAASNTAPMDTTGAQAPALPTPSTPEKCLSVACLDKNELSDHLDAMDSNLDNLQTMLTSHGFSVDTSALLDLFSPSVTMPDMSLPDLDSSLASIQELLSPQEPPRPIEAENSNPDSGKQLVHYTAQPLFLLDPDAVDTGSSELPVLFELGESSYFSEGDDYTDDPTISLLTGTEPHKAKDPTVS
# [5] = A cytotoxicity screen of small molecule inhibitors of the PhoP region in Salmonella typhi identified in the primary screen. [Related pubchem assays: 1850, 1864, 1985 ]; type: functional
# [6] = target: Beta-galactosidase (Escherichia coli, UniProt Q8VNN2); assay: detection-enzyme interference by beta-gal modulators – biochemical, E. coli enzyme, set 3, artefact control for CCR6 antagonist project, dose response (AID 504712); type: functional
# Chain of Beta-galactosidase (Q8VNN2 whole entry): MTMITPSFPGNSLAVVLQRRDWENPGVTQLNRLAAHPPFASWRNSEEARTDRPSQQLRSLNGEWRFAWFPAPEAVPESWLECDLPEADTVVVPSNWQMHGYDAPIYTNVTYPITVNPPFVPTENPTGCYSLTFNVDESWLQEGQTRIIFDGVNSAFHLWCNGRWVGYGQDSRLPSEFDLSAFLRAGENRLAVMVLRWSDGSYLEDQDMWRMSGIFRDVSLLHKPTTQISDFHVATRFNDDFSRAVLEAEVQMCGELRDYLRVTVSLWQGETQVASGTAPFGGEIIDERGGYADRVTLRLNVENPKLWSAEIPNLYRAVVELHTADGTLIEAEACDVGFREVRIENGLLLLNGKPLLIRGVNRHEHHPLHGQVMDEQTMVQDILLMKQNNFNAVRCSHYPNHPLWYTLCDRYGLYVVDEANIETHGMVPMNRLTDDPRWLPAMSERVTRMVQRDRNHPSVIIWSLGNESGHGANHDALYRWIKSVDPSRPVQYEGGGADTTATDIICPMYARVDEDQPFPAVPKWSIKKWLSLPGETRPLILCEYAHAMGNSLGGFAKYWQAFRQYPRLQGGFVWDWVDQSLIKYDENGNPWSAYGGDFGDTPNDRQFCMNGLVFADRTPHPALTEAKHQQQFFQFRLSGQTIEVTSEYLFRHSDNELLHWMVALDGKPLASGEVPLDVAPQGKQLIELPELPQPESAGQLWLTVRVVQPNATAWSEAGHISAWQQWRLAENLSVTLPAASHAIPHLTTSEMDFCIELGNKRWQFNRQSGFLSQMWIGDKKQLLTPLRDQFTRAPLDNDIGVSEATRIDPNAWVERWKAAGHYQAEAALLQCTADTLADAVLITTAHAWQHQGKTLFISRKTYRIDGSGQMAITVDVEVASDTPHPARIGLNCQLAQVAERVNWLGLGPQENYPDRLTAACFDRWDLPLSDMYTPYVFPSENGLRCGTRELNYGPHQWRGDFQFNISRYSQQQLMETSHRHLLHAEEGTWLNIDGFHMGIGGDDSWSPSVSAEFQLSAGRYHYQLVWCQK
# [7] = NIH3T3 cell viability loss – ATP luminescence, mouse fibroblasts, counter-screen, dose response (AID 2010); type: functional, cell-based;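 also: cells exposed to compound for about 90 hours before reading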
# [8] = HepG2 cell cytotoxicity, dose response, cytotoxicity control for non-replicating M. tuberculosis project (AID 489018); type: functional; settings: Mycobacterium tuberculosis
# [9] = THP-1 cell cytotoxicity, dose response, cytotoxicity control for non-replicating M. tuberculosis project (AID 489025); type: functional
# [10] = Trypanosoma cruzi growth suppression in host cells – NIH3T3 host cells, beta-gal luminescence, confirmation (AID 2044); type: functional, cell-based;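 also: intracellular parasites grown in NIH/3T3 mouse fibroblasts as host cells; luminescent beta-galactosidase reporter signal from transgenic T. cruzi replicating inside host cells; inhibitors lower the luminescence signal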
# [11] = Vero E6 cell cytotoxicity, dose response, cytotoxicity control for non-replicating M. tuberculosis project, secondary assay (AID 492998); type: functional, VeroE6; settings: Vero C1008
# [12] = microbe, parasite or virus in culture; type: functional; settings: Mycobacterium tuberculosis
# [13] = cells; type: functional
# [14] = CCR5-tropic HIV-1 fusion blockers – cell-based, CCR5-tropic Env, dose response (AID 2279); type: functional
# [15] = target: T3, Aminopeptidase N (Plasmodium falciparum FcB1/Columbia, UniProt O96935); assay: malaria alanyl aminopeptidase activity blockers – biochemical, fluorogenic H-Leu-NHMec substrate, 1536-well (AID 1445); parameters: species or system Plasmodium falciparum 3D7, 3D7
# T3 sequence (O96935 whole entry): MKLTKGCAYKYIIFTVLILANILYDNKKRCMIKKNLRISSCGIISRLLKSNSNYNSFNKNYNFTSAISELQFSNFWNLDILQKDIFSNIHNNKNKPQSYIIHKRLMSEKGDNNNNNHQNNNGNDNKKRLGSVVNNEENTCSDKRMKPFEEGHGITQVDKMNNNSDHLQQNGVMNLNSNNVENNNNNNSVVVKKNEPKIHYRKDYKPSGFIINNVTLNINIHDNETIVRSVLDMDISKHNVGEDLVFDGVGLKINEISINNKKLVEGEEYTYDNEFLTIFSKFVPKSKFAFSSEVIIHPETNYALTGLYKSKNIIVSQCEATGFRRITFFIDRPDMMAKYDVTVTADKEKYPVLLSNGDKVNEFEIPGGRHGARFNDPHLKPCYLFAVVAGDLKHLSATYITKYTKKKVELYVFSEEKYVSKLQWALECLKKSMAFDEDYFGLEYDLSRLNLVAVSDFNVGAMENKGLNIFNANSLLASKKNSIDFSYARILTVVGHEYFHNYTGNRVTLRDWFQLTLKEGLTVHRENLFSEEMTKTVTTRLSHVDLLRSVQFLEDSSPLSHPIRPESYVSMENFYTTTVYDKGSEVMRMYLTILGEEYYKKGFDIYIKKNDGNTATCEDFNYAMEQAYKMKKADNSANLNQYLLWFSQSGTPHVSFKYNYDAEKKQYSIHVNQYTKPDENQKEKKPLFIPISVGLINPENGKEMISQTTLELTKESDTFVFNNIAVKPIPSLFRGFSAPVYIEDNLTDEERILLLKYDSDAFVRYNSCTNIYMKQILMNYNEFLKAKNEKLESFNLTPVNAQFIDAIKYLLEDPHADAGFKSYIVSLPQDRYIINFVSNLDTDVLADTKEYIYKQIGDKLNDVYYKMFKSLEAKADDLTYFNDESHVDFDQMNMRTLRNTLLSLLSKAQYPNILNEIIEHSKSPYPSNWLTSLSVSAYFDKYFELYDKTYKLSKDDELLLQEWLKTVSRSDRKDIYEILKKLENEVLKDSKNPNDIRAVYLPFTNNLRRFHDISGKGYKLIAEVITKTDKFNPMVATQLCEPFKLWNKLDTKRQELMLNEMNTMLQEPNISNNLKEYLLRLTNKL
# [16] = Luminescence Cell-Based Dose Confirmation HTS to Identify Inhibitors of Platelet Dense Granule Release. [Related pubchem assays: 1663 (Primary HTS), 1678 (Summary of Project)]; type: functional
# [17] = target: T4, Rac GTPase-activating protein 1 (Homo sapiens, UniProt Q9H0H5); assay: blockers of MgcRacGAP-driven Rac1 GTP hydrolysis – biochemical, ADP Hunter fluorescence, primary and confirmatory, confirmation (AID 624330); type: functional
# T4 sequence (Q9H0H5 whole entry): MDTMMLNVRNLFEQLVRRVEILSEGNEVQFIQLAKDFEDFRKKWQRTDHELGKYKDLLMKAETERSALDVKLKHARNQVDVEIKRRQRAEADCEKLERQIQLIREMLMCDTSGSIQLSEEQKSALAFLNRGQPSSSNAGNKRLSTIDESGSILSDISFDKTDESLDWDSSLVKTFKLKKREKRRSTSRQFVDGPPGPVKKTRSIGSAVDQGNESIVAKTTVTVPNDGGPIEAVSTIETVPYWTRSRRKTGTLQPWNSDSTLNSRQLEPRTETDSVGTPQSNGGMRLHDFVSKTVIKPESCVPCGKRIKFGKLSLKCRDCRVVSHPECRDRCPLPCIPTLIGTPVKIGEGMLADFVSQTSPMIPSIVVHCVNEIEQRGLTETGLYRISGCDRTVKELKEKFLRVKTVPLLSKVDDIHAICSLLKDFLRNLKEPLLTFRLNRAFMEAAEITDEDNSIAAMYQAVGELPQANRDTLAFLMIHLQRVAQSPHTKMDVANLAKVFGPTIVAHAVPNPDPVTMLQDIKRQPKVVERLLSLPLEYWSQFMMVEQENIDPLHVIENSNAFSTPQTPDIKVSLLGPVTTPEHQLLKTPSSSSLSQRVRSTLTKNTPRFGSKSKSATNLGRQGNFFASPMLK
# [18] = target: T1, Luciferin 4-monooxygenase; assay: inhibition of purified Photinus pyralis luciferase – biochemical, luminescence, dose response (AID 1891)
# [19] = target: T2, Heat shock factor protein 1; assay: enhancement of HSF1-driven luciferase signal – cell-based, NIH3T3, luminescence, dose retest, confirmation (AID 435004); type: functional;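 also: stress induced by proteasome inhibitor MG132 added 30 min after compound; luciferase reporter driven by HSF1 response element in NIH3T3 cells; actives raise luminescence as potentiators of the MG132 stress response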
# [20] = HPDE-C7 pancreatic duct cell viability loss – fluorescence, HTS (AID 430); type: functional, cell-based; settings: Homo sapiens
# [21] = target: T5, Replicative DNA helicase DnaB (Mycobacterium tuberculosis, UniProt P9WMR3); assay: DnaB intein splicing inhibitors, dose response, biochemical, cell-free fluorescence (AID 449749); type: functional
# T5 sequence (P9WMR3 whole entry): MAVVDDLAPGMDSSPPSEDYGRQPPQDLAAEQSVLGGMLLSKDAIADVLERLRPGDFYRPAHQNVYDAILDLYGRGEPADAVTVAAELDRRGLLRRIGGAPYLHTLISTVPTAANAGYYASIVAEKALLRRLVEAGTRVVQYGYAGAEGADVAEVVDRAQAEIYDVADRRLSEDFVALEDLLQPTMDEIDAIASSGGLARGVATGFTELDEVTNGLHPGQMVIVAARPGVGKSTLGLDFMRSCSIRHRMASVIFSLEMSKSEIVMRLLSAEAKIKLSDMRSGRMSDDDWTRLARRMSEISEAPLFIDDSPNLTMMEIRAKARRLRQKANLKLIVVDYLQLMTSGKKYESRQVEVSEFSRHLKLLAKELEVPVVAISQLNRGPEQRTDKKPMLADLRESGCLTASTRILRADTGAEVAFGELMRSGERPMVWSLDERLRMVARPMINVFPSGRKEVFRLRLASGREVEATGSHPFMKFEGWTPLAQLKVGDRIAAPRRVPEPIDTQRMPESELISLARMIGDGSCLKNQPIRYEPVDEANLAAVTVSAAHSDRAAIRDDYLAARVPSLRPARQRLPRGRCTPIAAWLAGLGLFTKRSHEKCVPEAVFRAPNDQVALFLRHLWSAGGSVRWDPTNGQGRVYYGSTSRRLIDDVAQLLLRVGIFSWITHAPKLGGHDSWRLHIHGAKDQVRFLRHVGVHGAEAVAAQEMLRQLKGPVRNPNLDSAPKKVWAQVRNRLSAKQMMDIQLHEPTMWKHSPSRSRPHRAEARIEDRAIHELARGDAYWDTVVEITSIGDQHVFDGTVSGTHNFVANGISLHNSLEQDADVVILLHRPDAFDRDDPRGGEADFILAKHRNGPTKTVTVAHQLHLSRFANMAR
# [22] = target: T6, Protein RecA (Mycobacterium tuberculosis, UniProt P9WHJ3); assay: Fluorescence Cell-Free Homogeneous Dose Retest to Identify Inhibitors of RecA-Intein Splicing Activity. [Related pubchem assays (depositor defined):AID2097, AID2223, AID489010, AID492950]; type: functional
# T6 sequence (P9WHJ3 whole entry): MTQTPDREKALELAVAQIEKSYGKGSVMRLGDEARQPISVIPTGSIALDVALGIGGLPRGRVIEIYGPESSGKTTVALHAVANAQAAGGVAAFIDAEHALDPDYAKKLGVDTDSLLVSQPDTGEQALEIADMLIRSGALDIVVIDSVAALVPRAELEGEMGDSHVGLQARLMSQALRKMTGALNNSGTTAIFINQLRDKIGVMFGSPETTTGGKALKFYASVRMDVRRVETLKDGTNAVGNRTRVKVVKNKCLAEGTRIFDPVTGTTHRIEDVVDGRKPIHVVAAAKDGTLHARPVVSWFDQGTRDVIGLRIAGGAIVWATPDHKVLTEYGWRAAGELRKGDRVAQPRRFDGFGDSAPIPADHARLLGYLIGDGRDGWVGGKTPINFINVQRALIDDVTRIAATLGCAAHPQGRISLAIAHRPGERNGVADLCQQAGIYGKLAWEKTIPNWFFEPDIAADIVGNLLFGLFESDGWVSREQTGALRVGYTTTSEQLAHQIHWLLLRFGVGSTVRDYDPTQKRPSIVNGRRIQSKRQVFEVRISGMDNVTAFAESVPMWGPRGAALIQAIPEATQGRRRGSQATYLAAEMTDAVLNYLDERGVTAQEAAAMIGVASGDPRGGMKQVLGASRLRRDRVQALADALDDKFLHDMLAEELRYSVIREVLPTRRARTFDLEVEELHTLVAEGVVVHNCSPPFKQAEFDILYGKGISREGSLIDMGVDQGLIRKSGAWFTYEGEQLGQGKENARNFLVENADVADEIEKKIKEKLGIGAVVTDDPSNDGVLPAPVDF
# [23] = viability loss of HPDE-C7K cells – cell-based, fluorescence, HTS, primary screen (AID 431); type: functional; settings: Homo sapiens
smiles,measurement,setting,value
CCOC(=O)c1sc2nc3c(cc2c1N)COC(C(C)C)C3 (stereo unspecified),EC50,[1],> 50 µM (not active)
same,AC50,[2],22.4 µM (inconclusive)
same,EC50,[3],2.84 µM (active)
same,EC50,[4],> 195 µM (not active)
COc1cccc(N2CCN(C(S)=NCc3ccco3)CC2)c1,EC50,[5],> 50 µM (active)
CN1C(=O)C(c2c(O)[nH]c3ccccc23)=NC1=S,IC50,[6],> 66.6 µM (inactive)
Cc1ccc(NC(=O)COc2ccccc2CNC(C)(C)CC(C)(C)C)cc1,EC50,[7],8.6 µM (active)
same,CC50,[8],13.8 µM (active)
same,CC50,[9],18.9 µM (active)
same,EC50,[10],1.36 µM (active)
same,CC50,[11],15.7 µM (active)
same,CC50,[12],23.4 µM (active)
same,IC50,[13],13.4 µM (active)
COc1ccc(-c2nn(-c3ccccc3)cc2/C=C2/SC(=S)N(CCCC(=O)O)C2=O)c(C)c1,IC50,[14],45 µM (active)
O=C(Nc1ccc2nc(S)sc2c1)Nc1ccccc1F,EC50,[5],> 50 µM (active)
Nc1ccc(-c2nc3ccc(N)cc3o2)cc1,EC50,[1],> 50 µM (not active)
same,IC50,[15],26.2 µM (active)
same,EC50,[3],6.3 µM (active)
same,EC50,[16],25 µM (active)
same,IC50,[17],47.8 µM (active)
same,EC50,[18],20.1 µM (active)
CC(C)(C)NC(=O)CSc1ncnc2c1nnn2Cc1ccccc1Cl,EC50,[19],13.3 µM (active)
same,EC50,[20],11.8 µM (active)
same,AC50,[21],6.8 µM (active)
same,EC50,[22],8.37 µM (active)
same,EC50,[23],14.1 µM (active)
Cc1occc1C(=O)N/N=C/c1cccs1,EC50,[5],> 50 µM (active)
Cc1cc(C)c2ccc(/C=N/O)nc2c1O,CC50,[8],> 20 µM (active)
same,CC50,[9],22.9 µM (active)
same,CC50,[11],19.5 µM (active)
same,IC50,[13],4.25 µM (active)
